Reference: ChEMBL document CHEMBL5212743, “Selectivity Literature for EUbOPEN Chemogenomics Library wave 3” (2023)
Values belong to the compound of their own block, whether it stands above or below them.

Assays:
[1] = biological target: T1, Tyrosine-protein kinase JAK3 (Homo sapiens) (UniProt P52333); details: at 500 nM
T1 sequence (whole entry): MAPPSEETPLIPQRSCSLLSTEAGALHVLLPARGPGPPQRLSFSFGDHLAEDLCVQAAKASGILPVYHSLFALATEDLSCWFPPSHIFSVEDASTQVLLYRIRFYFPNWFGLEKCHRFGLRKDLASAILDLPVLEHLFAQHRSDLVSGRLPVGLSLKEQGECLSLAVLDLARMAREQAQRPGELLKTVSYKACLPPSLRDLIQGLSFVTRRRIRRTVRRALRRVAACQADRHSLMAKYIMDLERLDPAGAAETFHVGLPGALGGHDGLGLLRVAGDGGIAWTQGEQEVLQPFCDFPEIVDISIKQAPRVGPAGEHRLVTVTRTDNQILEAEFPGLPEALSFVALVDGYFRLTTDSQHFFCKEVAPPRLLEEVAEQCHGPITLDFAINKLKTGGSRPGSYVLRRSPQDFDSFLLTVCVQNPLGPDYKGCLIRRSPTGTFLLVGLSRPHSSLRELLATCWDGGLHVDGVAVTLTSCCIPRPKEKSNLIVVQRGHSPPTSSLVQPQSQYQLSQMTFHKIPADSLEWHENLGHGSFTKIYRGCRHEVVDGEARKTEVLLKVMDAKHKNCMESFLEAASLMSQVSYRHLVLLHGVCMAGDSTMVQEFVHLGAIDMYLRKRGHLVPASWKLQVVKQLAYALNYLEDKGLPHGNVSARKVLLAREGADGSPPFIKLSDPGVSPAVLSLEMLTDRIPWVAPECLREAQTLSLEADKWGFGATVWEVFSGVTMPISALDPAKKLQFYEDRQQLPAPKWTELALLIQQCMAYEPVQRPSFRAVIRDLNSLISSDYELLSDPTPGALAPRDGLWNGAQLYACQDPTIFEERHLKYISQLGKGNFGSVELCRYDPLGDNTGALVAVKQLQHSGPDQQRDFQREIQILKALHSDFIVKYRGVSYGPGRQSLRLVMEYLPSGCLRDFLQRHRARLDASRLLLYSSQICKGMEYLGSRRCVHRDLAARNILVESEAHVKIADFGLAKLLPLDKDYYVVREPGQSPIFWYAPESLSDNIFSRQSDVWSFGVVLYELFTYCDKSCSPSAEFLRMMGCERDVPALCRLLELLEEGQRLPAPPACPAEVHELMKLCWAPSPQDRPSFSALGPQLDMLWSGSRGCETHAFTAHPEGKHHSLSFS

[2] = biological target: Ribosomal protein S6 kinase alpha-6 (Homo sapiens) (UniProt Q9UK32); details: at 10 µM
[3] = biological target: Serine/threonine-protein kinase pim-1 (Homo sapiens, UniProt P11309); assay: Selectivity interaction (Kinase Profiler (Millipore)) EUB0000603a PIM1; details: at 10 µM
[4] = tested on: Platelet-derived growth factor receptor alpha (Homo sapiens), P16234 [V561D]; assay: Selectivity interaction (Kinase Profiler (Millipore)) EUB0000603a PDGFRA; details: at 10 µM
[5] = biological target: Serine/threonine-protein kinase N2 (Homo sapiens) (UniProt Q16513); details: at 10 µM
[6] = biological target: Ribosomal protein S6 kinase alpha-3 (Homo sapiens) (UniProt P51812); details: at 10 µM
[7] = biological target: Rho-associated protein kinase 1 (Homo sapiens) (UniProt Q13464); assay: Selectivity interaction (KinomeScan (DiscoverX)) EUB0000334a ROCK1; details: at 1 µM
[8] = biological target: T2, Gamma-aminobutyric acid receptor subunit alpha-1 (Homo sapiens) (UniProt P14867); assay: (§1) Selectivity interaction (GPCR panel (PDSP screen)) EUB0000334a GABRA1; details: at 10 µM
T2 sequence (whole entry): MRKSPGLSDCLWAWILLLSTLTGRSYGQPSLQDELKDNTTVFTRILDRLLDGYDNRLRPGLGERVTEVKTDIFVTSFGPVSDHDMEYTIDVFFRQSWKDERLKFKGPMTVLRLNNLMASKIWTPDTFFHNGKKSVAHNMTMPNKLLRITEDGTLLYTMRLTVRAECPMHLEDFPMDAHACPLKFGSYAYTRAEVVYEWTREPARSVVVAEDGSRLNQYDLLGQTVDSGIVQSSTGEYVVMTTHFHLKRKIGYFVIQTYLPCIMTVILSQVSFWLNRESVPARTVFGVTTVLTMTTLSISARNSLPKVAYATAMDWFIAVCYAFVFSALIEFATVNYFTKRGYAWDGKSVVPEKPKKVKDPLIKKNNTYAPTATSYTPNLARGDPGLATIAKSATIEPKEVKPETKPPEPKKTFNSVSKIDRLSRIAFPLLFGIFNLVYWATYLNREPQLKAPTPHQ

[9] = biological target: Dual specificity tyrosine-phosphorylation-regulated kinase 1B (Homo sapiens, UniProt Q9Y463); assay: Selectivity interaction (KinomeScan (DiscoverX)) EUB0000334a DYRK1B; details: at 1 µM
[10] = biological target: T2, Gamma-aminobutyric acid receptor subunit alpha-1 (Homo sapiens); assay: as §1; details: at 10 µM; remark: listed apart in the source
[11] = biological target: Protein arginine N-methyltransferase 7 (Homo sapiens) (UniProt Q9NVM4); assay: Selectivity interaction (Methyltransferase panel) EUB0000226b PRMT7; details: at 10 µM
[12] = biological target: Sodium-dependent serotonin transporter (Homo sapiens) (UniProt P31645); assay: Selectivity interaction (CEREP ExpressProfile selectivity/specificity profile (human recombinant receptors)) EUB0000213bCl SLC6A4; details: at 10 µM
[13] = biological target: Sodium-dependent dopamine transporter (Homo sapiens, UniProt Q01959); assay: Selectivity interaction (CEREP ExpressProfile selectivity/specificity profile (human recombinant receptors)) EUB0000213bCl SLC6A3; details: at 10 µM
[14] = biological target: 5-hydroxytryptamine receptor 1A (Homo sapiens) (UniProt P08908); assay: Selectivity interaction (CEREP ExpressProfile selectivity/specificity profile (human recombinant receptors)) EUB0000213bCl HTR1A; details: at 10 µM

Platelet-derived growth factor receptor alpha (Homo sapiens), P16234 [V561D], sequence (P16234 whole entry V561D): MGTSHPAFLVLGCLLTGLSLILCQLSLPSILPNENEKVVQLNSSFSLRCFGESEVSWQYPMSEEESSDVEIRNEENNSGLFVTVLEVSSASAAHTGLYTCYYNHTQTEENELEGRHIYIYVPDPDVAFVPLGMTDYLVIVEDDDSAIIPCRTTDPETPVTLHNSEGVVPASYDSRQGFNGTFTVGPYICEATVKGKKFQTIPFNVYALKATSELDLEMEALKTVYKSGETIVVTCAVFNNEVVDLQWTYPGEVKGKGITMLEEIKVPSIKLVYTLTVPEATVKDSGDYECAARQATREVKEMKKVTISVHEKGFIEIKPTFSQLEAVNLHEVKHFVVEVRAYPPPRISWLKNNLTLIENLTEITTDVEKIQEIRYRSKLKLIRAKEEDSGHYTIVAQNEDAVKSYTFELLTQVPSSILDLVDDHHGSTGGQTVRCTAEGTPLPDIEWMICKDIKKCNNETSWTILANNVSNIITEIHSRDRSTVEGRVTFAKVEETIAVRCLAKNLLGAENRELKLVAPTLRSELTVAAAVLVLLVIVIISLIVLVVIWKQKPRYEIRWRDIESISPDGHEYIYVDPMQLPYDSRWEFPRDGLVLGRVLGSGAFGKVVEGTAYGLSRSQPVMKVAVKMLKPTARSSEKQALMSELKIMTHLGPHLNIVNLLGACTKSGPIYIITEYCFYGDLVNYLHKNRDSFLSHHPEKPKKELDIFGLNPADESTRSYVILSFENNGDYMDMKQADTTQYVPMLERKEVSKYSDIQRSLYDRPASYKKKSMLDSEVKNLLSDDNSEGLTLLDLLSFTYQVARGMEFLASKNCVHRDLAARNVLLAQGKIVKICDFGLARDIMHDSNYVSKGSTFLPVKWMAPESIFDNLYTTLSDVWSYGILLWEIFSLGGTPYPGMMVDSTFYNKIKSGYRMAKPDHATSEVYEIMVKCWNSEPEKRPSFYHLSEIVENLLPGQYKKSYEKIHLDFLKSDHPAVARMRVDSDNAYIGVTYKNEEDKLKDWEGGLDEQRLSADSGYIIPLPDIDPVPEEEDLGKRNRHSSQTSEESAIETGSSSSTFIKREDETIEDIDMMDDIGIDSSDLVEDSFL
Sodium-dependent dopamine transporter, sequence (Q01959 whole entry): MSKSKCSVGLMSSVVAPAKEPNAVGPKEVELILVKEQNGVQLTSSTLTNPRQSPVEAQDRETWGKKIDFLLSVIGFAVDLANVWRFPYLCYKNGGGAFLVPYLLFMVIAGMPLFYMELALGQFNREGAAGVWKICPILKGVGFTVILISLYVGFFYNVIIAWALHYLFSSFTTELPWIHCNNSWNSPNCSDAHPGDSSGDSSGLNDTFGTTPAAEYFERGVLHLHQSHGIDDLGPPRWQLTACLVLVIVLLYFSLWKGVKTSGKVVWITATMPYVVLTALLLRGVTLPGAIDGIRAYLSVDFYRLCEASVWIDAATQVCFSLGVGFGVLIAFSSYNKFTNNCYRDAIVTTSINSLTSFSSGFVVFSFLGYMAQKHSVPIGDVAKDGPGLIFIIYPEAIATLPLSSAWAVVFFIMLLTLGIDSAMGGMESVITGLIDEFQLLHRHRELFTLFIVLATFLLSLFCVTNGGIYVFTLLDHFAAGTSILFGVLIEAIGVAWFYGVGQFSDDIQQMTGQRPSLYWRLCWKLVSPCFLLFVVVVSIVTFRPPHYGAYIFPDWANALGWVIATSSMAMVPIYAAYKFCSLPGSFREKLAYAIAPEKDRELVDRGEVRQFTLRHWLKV
Protein arginine N-methyltransferase 7 (Homo sapiens), sequence (Q9NVM4 whole entry): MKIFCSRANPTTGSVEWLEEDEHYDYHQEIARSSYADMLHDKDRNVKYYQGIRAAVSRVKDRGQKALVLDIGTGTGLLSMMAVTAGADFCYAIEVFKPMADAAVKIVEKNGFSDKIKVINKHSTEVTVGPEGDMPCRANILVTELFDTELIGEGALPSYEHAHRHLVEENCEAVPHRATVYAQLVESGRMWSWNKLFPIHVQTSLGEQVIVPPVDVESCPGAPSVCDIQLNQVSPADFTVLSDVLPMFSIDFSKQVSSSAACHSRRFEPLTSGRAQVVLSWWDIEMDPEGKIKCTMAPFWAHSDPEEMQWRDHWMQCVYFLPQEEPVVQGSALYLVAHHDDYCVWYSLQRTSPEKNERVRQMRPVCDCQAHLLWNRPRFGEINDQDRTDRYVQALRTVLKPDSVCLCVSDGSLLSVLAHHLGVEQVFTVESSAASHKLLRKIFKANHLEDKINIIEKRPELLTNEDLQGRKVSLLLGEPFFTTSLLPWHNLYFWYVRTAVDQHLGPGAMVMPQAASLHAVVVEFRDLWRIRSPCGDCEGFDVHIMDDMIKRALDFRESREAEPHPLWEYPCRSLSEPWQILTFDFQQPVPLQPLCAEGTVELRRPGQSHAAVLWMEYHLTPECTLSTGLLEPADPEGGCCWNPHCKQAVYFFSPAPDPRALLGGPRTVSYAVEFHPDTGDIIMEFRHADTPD
Serine/threonine-protein kinase N2 (Homo sapiens), sequence (Q16513 whole entry, looked up): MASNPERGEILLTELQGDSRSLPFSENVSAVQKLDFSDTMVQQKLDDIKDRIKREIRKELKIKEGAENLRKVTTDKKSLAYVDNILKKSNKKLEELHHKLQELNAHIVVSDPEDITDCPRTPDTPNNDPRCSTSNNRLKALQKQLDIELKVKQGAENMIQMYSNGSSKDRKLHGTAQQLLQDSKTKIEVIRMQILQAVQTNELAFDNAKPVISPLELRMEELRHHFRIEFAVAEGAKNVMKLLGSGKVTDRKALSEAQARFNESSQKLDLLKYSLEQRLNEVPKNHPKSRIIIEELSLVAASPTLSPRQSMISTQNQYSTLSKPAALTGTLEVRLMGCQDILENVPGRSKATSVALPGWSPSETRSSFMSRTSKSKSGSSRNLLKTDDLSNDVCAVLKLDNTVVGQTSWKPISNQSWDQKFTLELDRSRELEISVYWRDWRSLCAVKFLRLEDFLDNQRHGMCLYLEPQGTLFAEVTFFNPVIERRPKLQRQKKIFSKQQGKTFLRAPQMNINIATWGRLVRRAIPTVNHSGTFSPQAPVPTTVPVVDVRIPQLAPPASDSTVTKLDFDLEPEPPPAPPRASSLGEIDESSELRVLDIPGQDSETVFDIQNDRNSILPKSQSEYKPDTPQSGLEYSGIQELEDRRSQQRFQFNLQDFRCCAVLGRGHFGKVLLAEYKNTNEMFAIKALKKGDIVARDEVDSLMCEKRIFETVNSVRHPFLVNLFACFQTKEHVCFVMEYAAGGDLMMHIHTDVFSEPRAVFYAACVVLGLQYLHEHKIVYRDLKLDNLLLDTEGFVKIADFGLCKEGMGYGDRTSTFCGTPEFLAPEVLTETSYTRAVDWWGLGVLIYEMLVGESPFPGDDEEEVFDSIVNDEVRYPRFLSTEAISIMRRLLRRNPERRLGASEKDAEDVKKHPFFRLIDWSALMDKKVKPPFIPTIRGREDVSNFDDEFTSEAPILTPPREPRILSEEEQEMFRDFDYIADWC
Sodium-dependent serotonin transporter (Homo sapiens), sequence (P31645 whole entry, looked up): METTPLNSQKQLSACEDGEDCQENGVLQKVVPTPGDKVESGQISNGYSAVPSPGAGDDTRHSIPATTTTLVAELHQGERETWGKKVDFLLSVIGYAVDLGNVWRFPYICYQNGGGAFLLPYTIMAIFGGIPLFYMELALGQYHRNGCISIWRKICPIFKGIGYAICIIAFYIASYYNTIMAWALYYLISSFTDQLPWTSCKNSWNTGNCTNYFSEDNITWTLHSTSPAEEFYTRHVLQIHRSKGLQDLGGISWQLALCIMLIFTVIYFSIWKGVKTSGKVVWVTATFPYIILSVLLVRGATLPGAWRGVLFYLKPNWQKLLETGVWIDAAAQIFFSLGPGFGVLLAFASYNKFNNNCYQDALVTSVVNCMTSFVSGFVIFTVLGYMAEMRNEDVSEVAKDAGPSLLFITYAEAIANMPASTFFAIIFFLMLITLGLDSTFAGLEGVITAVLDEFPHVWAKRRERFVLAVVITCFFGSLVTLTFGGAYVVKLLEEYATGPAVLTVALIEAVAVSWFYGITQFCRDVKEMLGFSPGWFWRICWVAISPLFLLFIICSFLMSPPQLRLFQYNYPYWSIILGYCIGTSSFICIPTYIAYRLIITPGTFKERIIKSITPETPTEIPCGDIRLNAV
Serine/threonine-protein kinase pim-1, sequence (P11309 whole entry, looked up): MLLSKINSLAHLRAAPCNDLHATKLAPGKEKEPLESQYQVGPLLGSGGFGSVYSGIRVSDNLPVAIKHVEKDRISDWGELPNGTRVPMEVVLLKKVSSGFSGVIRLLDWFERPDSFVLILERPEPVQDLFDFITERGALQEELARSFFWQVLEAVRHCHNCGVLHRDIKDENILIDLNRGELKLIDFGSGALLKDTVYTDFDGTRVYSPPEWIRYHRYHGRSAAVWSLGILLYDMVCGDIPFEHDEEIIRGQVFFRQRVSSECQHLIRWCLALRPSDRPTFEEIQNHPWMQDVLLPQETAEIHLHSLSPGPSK
Ribosomal protein S6 kinase alpha-3 (Homo sapiens), sequence (P51812 whole entry): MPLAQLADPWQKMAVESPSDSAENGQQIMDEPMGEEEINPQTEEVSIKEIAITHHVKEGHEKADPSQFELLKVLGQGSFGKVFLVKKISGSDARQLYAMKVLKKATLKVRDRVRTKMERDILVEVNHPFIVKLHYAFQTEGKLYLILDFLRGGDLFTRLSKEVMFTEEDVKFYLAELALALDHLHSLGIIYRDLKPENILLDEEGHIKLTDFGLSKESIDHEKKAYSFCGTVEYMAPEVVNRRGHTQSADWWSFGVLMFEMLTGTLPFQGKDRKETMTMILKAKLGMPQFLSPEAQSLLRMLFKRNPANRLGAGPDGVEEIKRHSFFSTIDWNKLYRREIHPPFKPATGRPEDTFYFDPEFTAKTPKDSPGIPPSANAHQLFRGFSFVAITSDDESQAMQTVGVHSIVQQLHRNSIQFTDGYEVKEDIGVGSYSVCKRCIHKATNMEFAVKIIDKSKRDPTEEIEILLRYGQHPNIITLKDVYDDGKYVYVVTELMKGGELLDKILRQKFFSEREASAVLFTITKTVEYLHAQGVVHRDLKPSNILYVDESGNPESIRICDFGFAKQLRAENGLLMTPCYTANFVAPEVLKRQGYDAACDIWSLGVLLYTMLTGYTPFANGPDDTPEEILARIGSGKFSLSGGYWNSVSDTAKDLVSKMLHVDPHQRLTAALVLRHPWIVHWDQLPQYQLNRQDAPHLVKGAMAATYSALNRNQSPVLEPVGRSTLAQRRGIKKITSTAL

% of inhibition [1]: 97%
Compound: CN(C)C(=O)/C(C#N)=C/c1ccc(-c2nc3cnc4[nH]ccc4c3n2C2CCCCC2)o1

% of control [7]: 6% | inhibition [8]: 45% | % of control [9]: 36% | inhibition [10]: 41%
Compound: CN([C@@H]1CCc2c(CC(=O)O)c3cc(S(C)(=O)=O)ccc3n2C1)S(=O)(=O)c1ccc(F)cc1

Continued, compound first:

Compound: C[C@@H](Oc1cc(-n2cnc3ccc(CN4CCN(C)CC4)cc32)sc1C(N)=O)c1ccccc1C(F)(F)F
% of inhibition [2]: 92% | % of inhibition [3]: 90% | % of inhibition [4]: 96% | % of inhibition [5]: 92% | % of inhibition [6]: 92%

Compound: Nc1ncnc2c1ccn2[C@@H]1O[C@H]([C@H](O)c2ccccc2)[C@@H](O)[C@H]1O
% activity remaining [11]: 75%

Compound: c1ccc([C@@H]2C[C@H]2NC2CCNCC2)cc1
% of inhibition [12]: 74% | % of inhibition [13]: 39% | % of inhibition [14]: 49%
